Where a name gives a salt, the structure may show the parent alone. Read-outs that look alike come from different tables or passages of the source.
Columns and labels:
[1] = molecular target: T1, SARS-CoV-2 PLpro (nsp3 1564–1878) (Severe acute respiratory syndrome coronavirus 2, UniProt P0DTD1); assay: biochemical; parameters: FRET-quenched peptide (Pro3) cleavage by PLpro, 10 min pre-incubation, slope over 20 min, normalised to no-compound control; conditions: high concentration screen
[2] = molecular target: T1, SARS-CoV-2 PLpro (nsp3 1564–1878); assay: biochemical; parameters: FRET-quenched peptide (Pro3) cleavage by PLpro, 10 min pre-incubation, slope over 20 min, normalised to no-compound control; conditions: low concentration screen
[3] = Well no.=8653, read-out: % of control remaining
[4] = Well no.=4883, read-out: % of control remaining
[5] = Well no.=6174, read-out: % of control remaining
[6] = Well no.=8153, read-out: % of control remaining
[7] = Well no.=1389, read-out: % of control remaining
[8] = Well no.=4667, read-out: % of control remaining
[9] = Well no.=7281, read-out: % of control remaining
[10] = Well no.=4474, read-out: % of control remaining
[11] = Well no.=3460, read-out: % of control remaining
[12] = Well no.=7525, read-out: % of control remaining
[13] = Well no.=884, read-out: % of control remaining
[14] = Well no.=1917, read-out: % of control remaining
[15] = Well no.=2021, read-out: % of control remaining
[16] = Well no.=8935, read-out: % of control remaining
[17] = Well no.=4768, read-out: % of control remaining
[18] = Well no.=227, read-out: % of control remaining
[19] = Well no.=6998, read-out: % of control remaining
[20] = Well no.=6463, read-out: % of control remaining
[21] = Well no.=2189, read-out: % of control remaining
[22] = Well no.=1064, read-out: % of control remaining
[23] = Well no.=8393, read-out: % of control remaining
[24] = Well no.=4887, read-out: % of control remaining
[25] = Well no.=18, read-out: % of control remaining
[26] = Well no.=7567, read-out: % of control remaining
[27] = Well no.=608, read-out: % of control remaining
[28] = Well no.=7764, read-out: % of control remaining
[29] = Well no.=1050, read-out: % of control remaining
[30] = Well no.=2606, read-out: % of control remaining
[31] = Well no.=8697, read-out: % of control remaining
[32] = read-out: % of control remaining, Well no.=1861
[33] = read-out: % of control remaining, Well no.=6467
[34] = Well no.=6153, read-out: % of control remaining
[35] = Well no.=8537, read-out: % of control remaining
[36] = Well no.=374, read-out: % of control remaining
[37] = Well no.=5525, read-out: % of control remaining
[38] = Well no.=4718, read-out: % of control remaining

OC[C@H]1O[C@@H](n2cnc3c(NCCc4c[nH]c5ccccc45)ncnc32)[C@H](O)[C@@H]1O [A2AR-agonist-1]
remaining activity at 3.75 µM [1, 3]: 105%
remaining activity at 1.25 µM [2, 3]: 105%

CC#CCn1c(N2CCC[C@@H](N)C2)nc2c1c(=O)n(Cc1nc(C)c3ccccc3n1)c(=O)n2C [Linagliptin (BI-1356)]
remaining activity at 3.75 µM [1, 4]: 93.9%
remaining activity at 1.25 µM [2, 4]: 97%

CN(C)CCc1c[nH]c2ccc(Cn3cncn3)cc12 [Rizatriptan (benzoate)]
remaining activity at 3.75 µM [1, 5]: 89.9%
remaining activity at 1.25 µM [2, 5]: 93.4%

N=C(N)NCCC[C@@H](NC(=O)[C@@H]1CCCN1C(=O)[C@@H]1CSSCCC(=O)N[C@@H](Cc2ccc(O)cc2)C(=O)N[C@@H](Cc2ccccc2)C(=O)N[C@@H](CCC(N)=O)C(=O)N[C@@H](CC(N)=O)C(=O)N1)C(=O)NCC(N)=O [Desmopressin (Acetate)]
remaining activity at 3.75 µM [1, 6]: 96.9%
remaining activity at 1.25 µM [2, 6]: 103%

CCSC(N)=Nc1ccc(C(F)(F)F)cc1 [TFPI hydrochloride]
remaining activity at 3.75 µM [1, 7]: 93.8%
remaining activity at 1.25 µM [2, 7]: 95.8%

CC(=O)c1c(C)c2cnc(Nc3ccc(N4CCNCC4)cn3)nc2n(C2CCCC2)c1=O [PD 0332991 (Palbociclib) HCl]
remaining activity at 3.75 µM [1, 8]: 98%
remaining activity at 1.25 µM [2, 8]: 99%

COc1ccccc1Oc1c(NS(=O)(=O)c2ccc(C)cn2)nc(-c2ccncc2)nc1OC [Avosentan]
remaining activity at 3.75 µM [1, 9]: 100%
remaining activity at 1.25 µM [2, 9]: 102%

CCCCCCCCCC(=O)OCC(CO)OC(=O)CCCCCCCCC (stereo not drawn) [1,2-Didecanoyl-glycerol (10:0)]
remaining activity at 3.75 µM [1, 10]: 95.2%
remaining activity at 1.25 µM [2, 10]: 101%

C=C[C@]12CN(C)[C@@H]3[C@H]4CO[C@H](C[C@H]41)[C@]1(C(=O)Nc4ccccc41)[C@@H]32
remaining activity at 3.75 µM [1, 11]: 99%
remaining activity at 1.25 µM [2, 11]: 98%

CN(C)CCC(c1ccc(Cl)cc1)c1ccccn1 (stereo not drawn) [Chlorpheniramine (maleate)]
remaining activity at 3.75 µM [1, 12]: 101%
remaining activity at 1.25 µM [2, 12]: 103%

NCCS [Cysteamine hydrochloride]
remaining activity at 3.75 µM [1, 13]: 103%
remaining activity at 1.25 µM [2, 13]: 105%

CC1=C(C)C(=O)C(CCCCC#CCCCC#CCO)=C(C)C1=O [Docebenone]
remaining activity at 3.75 µM [1, 14]: 90.2%
remaining activity at 1.25 µM [2, 14]: 90.8%

CCC[S+]([O-])c1ccc2[nH]c(NC(=O)OC)nc2c1 (stereo not drawn) [Ricobendazole]
remaining activity at 3.75 µM [1, 15]: 106%
remaining activity at 1.25 µM [2, 15]: 103%

O=c1ccn([C@@H]2O[C@H](COP(=O)(O)O)[C@@H](O)[C@H]2O)c(=O)[nH]1 [Uridine 5'-monophosphate disodium salt]
remaining activity at 3.75 µM [1, 16]: 97.2%
remaining activity at 1.25 µM [2, 16]: 112%

C#C[C@]1(O)CC[C@H]2[C@@H]3CCc4cc(OC)ccc4[C@H]3CC[C@@]21C [Mestranol]
remaining activity at 3.75 µM [1, 17]: 102%
remaining activity at 1.25 µM [2, 17]: 101%

NCC(O)c1cc(O)c(O)cc1F (stereo not drawn) [6-Fluoronorepinephrine hydrochloride]
remaining activity at 3.75 µM [1, 18]: 97%
remaining activity at 1.25 µM [2, 18]: 97.7%

CCc1nc2c(C)nc(C)cc2n1-c1ccc(CCNC(=O)NS(=O)(=O)c2ccc(C)cc2)cc1 [Grapiprant]
remaining activity at 3.75 µM [1, 19]: 95.9%
remaining activity at 1.25 µM [2, 19]: 97.1%

Cc1nc2c([nH]1)-c1ccccc1N(C(=O)c1ccc(NC(=O)c3ccccc3-c3ccccc3)cc1)CC2 [Conivaptan (hydrochloride)]
remaining activity at 3.75 µM [1, 20]: 101%
remaining activity at 1.25 µM [2, 20]: 99.7%

CCOC(=O)[C@H](CCc1ccccc1)N[C@@H](C)C(=O)N1Cc2ccccc2C[C@H]1C(=O)O [Quinapril]
remaining activity at 3.75 µM [1, 21]: 96.3%
remaining activity at 1.25 µM [2, 21]: 98.1%

CCCOC(=O)c1c(-c2ccccc2)nc(CC)c(C(=O)SCC)c1CCC [MRS 1523]
remaining activity at 3.75 µM [1, 22]: 94.2%
remaining activity at 1.25 µM [2, 22]: 95.3%

CCNC1(C(N)=O)CCN(c2ncnc3c2nc(-c2ccccc2Cl)n3-c2ccc(Cl)cc2)CC1 [Otenabant]
remaining activity at 3.75 µM [1, 23]: 87.6%
remaining activity at 1.25 µM [2, 23]: 93.1%

Cc1cc2c(cc1CC(=O)c1sccc1S(=O)(=O)Nc1onc(C)c1Cl)OCO2 [Sitaxentan sodium (TBC-11251)]
remaining activity at 3.75 µM [1, 24]: 98.3%
remaining activity at 1.25 µM [2, 24]: 95.6%

CC(=O)c1ccc(S(=O)(=O)NC(=O)NC2CCCCC2)cc1 [Acetohexamide]
remaining activity at 3.75 µM [1, 25]: 98.9%
remaining activity at 1.25 µM [2, 25]: 93.4%

CCOC(=O)N[C@@H]1CC[C@@H]2[C@@H](C1)C[C@H]1C(=O)O[C@H](C)[C@H]1[C@H]2/C=C/c1ccc(-c2cccc(F)c2)cn1 [Vorapaxar]
remaining activity at 3.75 µM [1, 26]: 89.4%
remaining activity at 1.25 µM [2, 26]: 97.6%

OCc1cnc[nH]1 [4-Imidazolemethanol hydrochloride]
remaining activity at 3.75 µM [1, 27]: 96.7%
remaining activity at 1.25 µM [2, 27]: 97.2%

C[C@@]1(F)[C@H](O)[C@@H](CO)O[C@H]1n1ccc(N)nc1=O [PSI-6130]
remaining activity at 3.75 µM [1, 28]: 100%
remaining activity at 1.25 µM [2, 28]: 107%

CC(C)[C@H](CO)Nc1nc(Nc2cccc(Cl)c2)c2ncn(C(C)C)c2n1 [Purvalanol A]
remaining activity at 3.75 µM [1, 29]: 86.5%
remaining activity at 3.75 µM [1, 30]: 92%
remaining activity at 1.25 µM [2, 29]: 86.7%
remaining activity at 1.25 µM [2, 30]: 91.1%

N[C@](CCCCB(O)O)(CCN1CCCCC1)C(=O)O [Arginase inhibitor 1]
remaining activity at 3.75 µM [1, 31]: 105%
remaining activity at 1.25 µM [2, 31]: 106%

C[C@@H]1C[C@H]2[C@@H]3CCC4=CC(=O)C=C[C@]4(C)[C@@]3(F)[C@@H](O)C[C@]2(C)[C@@]1(O)C(=O)CO [Dexamethasone]
remaining activity at 3.75 µM [1, 32]: 100%
remaining activity at 3.75 µM [1, 33]: 98.7%
remaining activity at 1.25 µM [2, 32]: 99.1%
remaining activity at 1.25 µM [2, 33]: 96.6%

C[C@H](CCC(=O)O)[C@H]1CC[C@H]2[C@@H]3CC[C@@H]4C[C@H](O)CC[C@]4(C)[C@H]3C[C@H](O)[C@]12C [Deoxycholic acid]
remaining activity at 3.75 µM [1, 34]: 112%
remaining activity at 3.75 µM [1, 35]: 103%
remaining activity at 1.25 µM [2, 34]: 107%
remaining activity at 1.25 µM [2, 35]: 102%

Nc1ccn([C@@H]2O[C@H](CO)[C@@H](O)[C@@H]2O)c(=O)n1 [Cytosine-1-beta-D-arabinofuranoside hydrochloride]
remaining activity at 3.75 µM [1, 36]: 89.3%
remaining activity at 1.25 µM [2, 36]: 94.2%

O=C1CCc2c(ccc3ccccc23)O1 [Splitomicin]
remaining activity at 3.75 µM [1, 37]: 120%
remaining activity at 1.25 µM [2, 37]: 105%

CN(C)[C@@H]1C(O)=C(C(N)=O)C(=O)[C@@]2(O)C(O)=C3C(=O)c4c(O)cccc4[C@@](C)(O)[C@H]3[C@H](O)[C@@H]12 [Oxytetracycline dihydrate]
remaining activity at 3.75 µM [1, 38]: 99.6%
remaining activity at 1.25 µM [2, 38]: 102%
